Columns and labels:
[1] = system: male mice; assay: Electroejaculation test after oral administration of diarylmethylpiperazine compounds (35 Hz, 3 to 8 volts); assay type: in vivo, mouse; conditions: for Effective Dose: oral administration, stimulation about 20 minutes after dosing, 3 to 8 volts in 0.5 volt increments; for Ejaculation Inhibition %: relative to control group, at the effective dose of the same line, oral, about 20 minutes after dosing, 3 to 8 volts
Procedure: (§1) Male, CD-1 mice (20-30 g) were housed in groups of ten (10) in Plexiglas® chambers with food and water available before any procedure. Animals were maintained on a 12 hour light/dark cycle in a temperature-controlled animal colony. Studies were carried out in accordance with the Guide for the Care and Use of Laboratory animals as adopted and promulgated by the National Institutes of Health.
(§2) Specifically, the bipolar electrode probe is an approximately 5 cm long tube having an outer diameter of approximately 0.2388 cm with an inner diameter of approximately 0.0787 cm and a wall thickness of […].
A testing mouse was restrained in a cone bag with rear legs extending from the bag. Excess fecal matter was removed from the rectum and a lubricated bipolar electrode was inserted approximately […] into the rectum. An oscillating current of 40 Hz was utilized for electrical stimulation starting at 3 volts with a gradual increase to 8 volts by increments of 0.5 volts, as shown in Table 1. The stimulation regime included 4 stimulating events for each voltage lasting 2 seconds with a rest period of 2 seconds between stimulating events. A white coagulum ejaculate from the penis indicated a successful ejaculation. If ejaculation occurred before reaching the 8 volt terminal voltage, the testing was stopped.
Further testing was conducted on a multiple diarylmethylpiperazine compounds according to the testing procedure setforth above wherein the stimulating protocol comprised multiple operating cycles of alternating stimulation periods and rest periods during which the operating voltage of each operating cycle increased in comparison with that of the immediately preceding operating cycle. Electroejaculation stimulation was conducted at 35 Hz oscillating frequency, starting at 3 volts with a gradual increase to 8 volts by increments of 0.5 volts and occurred about 20 minutes after oral administration. The results, showing ejaculation inhibition relative to that of the control group, are compiled in Table 2.

[2] = biological target: delta opioid receptor (Homo sapiens, UniProt P41143); conditions: delta opioid receptor agonist versus mu opioid receptors; cited from earlier work
[3] = system: male mice; assay: Electroejaculation test after subcutaneous SNC-80 (40 Hz, 3 to 8 volts); assay type: in vivo, mouse; conditions: terminal voltage 8 volts, FIG. 3
Procedure: as §1, §2
SNC-80 was dissolved in 5% dextrose injection solution. Equal molar of HCL was added when the manufacturer packaged the compound in a base form. The placebo was prepared in a similar manner without the test drug 10 minutes after the injection, the test mouse was subjected to electrostimulation. Ten mice were tested for each dose level, the order of each mouse receiving different doses was blinded and in a random manner.
A testing mouse was restrained in a cone bag with rear legs extending from the bag. Excess fecal matter was removed from the rectum and a lubricated bipolar electrode was inserted approximately 2.5 into the rectum. […]

[4] = system: mouse vas deferens smooth muscle; conditions: in vitro; cited from earlier work

Chain of delta opioid receptor (P41143 whole entry): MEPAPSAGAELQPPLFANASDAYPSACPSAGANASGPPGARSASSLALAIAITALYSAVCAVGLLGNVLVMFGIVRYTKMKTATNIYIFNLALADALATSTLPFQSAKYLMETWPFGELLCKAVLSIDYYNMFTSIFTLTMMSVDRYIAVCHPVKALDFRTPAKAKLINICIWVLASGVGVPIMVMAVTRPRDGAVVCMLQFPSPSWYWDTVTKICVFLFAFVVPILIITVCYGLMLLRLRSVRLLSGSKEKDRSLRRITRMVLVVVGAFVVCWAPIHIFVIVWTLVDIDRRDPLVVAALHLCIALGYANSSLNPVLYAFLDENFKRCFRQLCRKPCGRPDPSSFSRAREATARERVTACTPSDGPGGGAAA

| SMILES | Effective Dose [1] | Ejaculation Inhibition % [1] | selectivity over mu opioid receptors [2] | inhibitory effect on ejaculation at reduced dose ([3]; 0.1 mg/kg subcutaneous) | occurrence of ejaculation compared to control group ([3]; 1 mg/kg subcutaneous) | contraction of mouse vas deferens smooth muscle [4] |
| --- | --- | --- | --- | --- | --- | --- |
| CCN(CC)C(=O)c1ccc([C@H](c2ccccc2)N2C[C@@H](C)N(Cc3ccc(O)cc3)C[C@@H]2C)cc1 [4-((alpha-S)-alpha-((2S,5R)-2,5-Dimethyl-4-(4-hydroxybenzyl)-1-piperazinyl)-benzyl)-N,N-diethylbenzamide] | 3 mg/kg | 50% | – | – | – | – |
| C=CCN1C[C@H](C)N([C@H](c2ccc(C(=O)N(CC)CC)cc2)c2cccc(OC)c2)C[C@H]1C [SNC-80, (+)-4-[(αR)-α-((2S,5R)-4-Allyl-2,5-dimethyl-1-piperazinyl)-3-methoxybenzyl]-N,N-diethyl benzamide] | – | – | 2000 fold | inhibitory effect diminished | significantly reduced the occurrence of ejaculation | block the contraction |
| CCN(CC)C(=O)c1ccc([C@@H](c2ccccc2)N2C[C@H](C)N(Cc3cccc(F)c3)C[C@H]2C)cc1 [4-((alpha-R)-alpha-((2R,5 S)-2,5-Dimethyl-4-(3-fluorobenzyl)-1-piperazinyl)benzyl)-N,N-diethylbenzamide] | 0.4 mg/kg | 75% | – | – | – | – |
| CCN(CC)C(=O)c1ccc([C@H](c2cccc(O)c2)N2C[C@@H](C)N(CC3CC3)C[C@@H]2C)cc1 [4-(alpha-R)-alpha-((2S,5R)-4-(Cyclopropylmethyl)-2,5-dimethyl-1-piperazinyl)-3-hydroxybenzyl)-N,N-diethylbenzamide] | 0.3 mg/kg | 60% | – | – | – | – |
| CCN(CC)C(=O)c1ccc([C@H](c2cccc(OCC(=O)O)c2)N2C[C@@H](C)N(Cc3ccccc3)C[C@@H]2C)cc1 [3-((alpha-R)-alpha-((2S,5R)-4-Benzyl-2,5-dimethyl-1-piperazinyl)-4-(diethylaminocarbonyl)benzyl)phenoxyacetic acid] | 3 mg/kg | 66% | – | – | – | – |
| C=CCN1C[C@@H](C)N([C@H](c2ccc(S(=O)(=O)N(C)C)cc2)c2cccc(O)c2)C[C@@H]1C [4-[(R)-((2R,5S)-4-Allyl-2,5-diimethylpiperazin-1-yl)(3-hydroxyphenyl)methyl]-N,N-dimethylbenzenesulfonamide] | 0.3 mg/kg | 50% | – | – | – | – |
| C=CCN1C[C@H](C)N([C@H](c2ccc(C(=O)N(CC)CC)cc2)c2cccc(OCC(=O)O)c2)C[C@H]1C [3-((alpha-R)-alpha-((2S,5R)-4-Allyl-2,5-dimethyl-1-piperazinyl)-4-(diethylamino-carbonyl)benzyl)phenoxyacetic acid] | 0.01 mg/kg | 45% | – | – | – | – |
| CCN(CC)C(=O)c1ccc([C@H](c2cccc(OC)c2)N2C[C@@H](C)N(Cc3ccc(F)cc3)C[C@@H]2C)cc1 [4-((alpha-R)-alpha-((2S,5R)-2,5-Dimethyl-4-(4-fluorobenzyl)-1-piperazinyl)-3-methoxybenzyl)-N,N-diethylbenzamide] | 3 mg/kg | 38% | – | – | – | – |
| CCN(CC)C(=O)c1ccc([C@H](c2cccc(OC)c2)N2C[C@@H](C)N(Cc3ccccc3F)C[C@@H]2C)cc1 [4-((alpha-R)-alpha-((2S,5R)-2,5-Dimethyl-4-(2-fluorobenzyl)-1-piperazinyl)-3-methoxybenzyl)-N,N-diethylbenzamide] | 10 mg/kg | 50% | – | – | – | – |
| CCN(CC)C(=O)c1ccc([C@H](c2cccc(OC)c2)N2C[C@@H](C)N(Cc3ccccc3)C[C@@H]2C)cc1 [4-(alpha-R)-alpha-((2S,5R)-4-Benzyl-2,5-dimethyl-1 piperazinyl)-3-methoxybenzyl)-N,N-diethylbenzamide] | 3 mg/kg | 33% | – | – | – | – |
| CCN(CC)C(=O)c1ccc([C@H](c2cccc(O)c2)N2C[C@@H](C)N(Cc3cccc(F)c3)C[C@@H]2C)cc1 [4-((alpha-R)-alpha-((2S,5R)-2,5-Dimethyl-4-(3-fluorobenzyl)-1-piperazinyl)-3-hydroxybenzyl)-N,N-diethylbenzamide] | 3 mg/kg | 60% | – | – | – | – |

Source: patent publication US20030130698A1, “Method for screening therapeutic agents for modulation of ejaculatory response” (priority 2002, published 2003)
